Assay results taken from patent publication US20240130988A1, “Use of stilbene compounds in the preparation of anti-tumor drugs” (Guangzhou AnHao Pharmaceutical Technology CO., LTD., priority 2022, published 2024).
Marks after values point to notes of the source that are not given here.

Columns and labels:
[1] = system: LLC (mouse lung cancer cells); assay: Enrichment of CD8+ cytotoxic T lymphocytes in tumor tissue, Lewis non-small cell lung cancer model of mice; assay type: in vivo; details: 400 mg/kg ip once a day for 10 days, CD8+ immunohistochemistry
[2] = system: nonfusion human umbilical vein endothelial cells (HUVEC); assay: TMT quantitative proteomics on nonfusion HUVEC; assay type: cell-based; details: 10 μM; for Differentially expressed proteins: more than 1.5 times or less than 0.67 times vs control; for Down-regulation / Up-regulation: number of proteins
Protocol: Nonfusion human umbilical vein endothelial cells (HUVEC) were used to simulate new tumor blood vessels, while confluent HUVECs were used to simulate normal blood vessels, to construct experimental models. Two different HUVECs were treated with the compound at the same dosage of 10 μM, to simulate the fusion cell state, and proteome samples were prepared. After preparation of peptide segments, the segments were labelled with TMT, and a quantitative proteomics analysis was carried out. The efficiency of TMT labeling was higher than 99.4%, and a total of 28372 peptide segments from 4934 proteins were characterized using a strict 1% FDR limit. Among them, 4909 quantifiable proteins were identified, indicating reliable quality. The nonfusion treatment groups and the fusion treatment groups were compared with their respective control groups, and the control group was used as a reference, with a significant difference of more than 1.5 times or less than 0.67 times as the protein score standard.
The total cell proteins of the samples in nonfusion cell groups and fusion cell groups were extracted separately, and 2 μg of protein samples were subjected to quality analysis, The quantitative proteomics experiments were carried out, and the protein concentration assay was performed by quantitative grayscale measurement.
Data analysis: The human protein database (Scientific name: Homo sapiens, 9606) was downloaded from UniProt, MaxQuant (v 1.5.5.1) search engine was used to search for the database. A total of 4934 proteins (4909 quantitative proteins) and 28372 peptide segments were identified by TMT quantitative proteomics experiments, with a labeling efficiency of more than 99%, and the complete digestion occupied 86.3%.

[3] = system: human liver cancer QGY7703; assay: Human liver cancer QGY7703 transplanted tumor in nude mice; assay type: in vivo, BALB/C nude mice; design: key to RTV (d 18): RTV = Vt/Vo, tumor volume relative to volume at grouping (d1); details: QGY7703, 100 mg/kg iv × 14; for inhibition in vivo at 100 mg/kg: Mus musculus, QGY-7703, read-out: Tumor inhibitory rate %
Protocol: A human liver cancer QGY7703 model transplanted into nude mice was used in the experiment to investigate the anti-tumor effect of test compounds. The mice were intravenously injected at a dosage of 100 mg/kg for 14 days, and the tumor inhibition rate against human liver cancer QGY7703 was measured.
(§1) Preparation: The compound was prepared as the injection at the desired concentration with sterile normal saline, prior to administration.
Animal strain: BALB/C nude mice (SPF grade), weight: 19-21 g, gender: male. Number of animals in each treatment group: 8; number of animals in the control group: >12.
(§2) The tumor blocks of human liver cancer QGY7703 with good growth were cut into uniform small pieces of 3 mm under sterile conditions, and then subcutaneously inoculated into the right armpit of each mouse with a cannula. These mice were divided into 9 groups, 8 mice for each treatment group, while more than 12 mice were included in the control group.
(§3) 14 days after inoculation, the average volume of the tumor block was about 100 mm^3. The animals were regrouped based on the size of the tumor, and the animals with tumors that were too large and too small were sifted out. For each group, the average volume of tumors was basically the same, and then the mice were initially treated with test compounds. The mice in the treatment groups were intravenously injected once a day for 14 days, at a dosage of 0.1 mL/20 g body weight; the mice in the control group were given the same volume of sterile normal saline. From the 14th day of inoculation, the long diameter a (mm) of the tumor, together with the perpendicular short diameter b (mm), was measured using a digital electronic caliper, twice a week. The calculation formula of tumor volume is: TV=ab^2/2, and the formula for calculating the relative tumor volume is RTV=Vt/Vo, wherein Vo denotes the tumor volume measured when the mice were divided into groups (i.e. d1), and Vt is the tumor volume from each measurement.
(§4) The result determination is based on the following formula: […]

[4] = system: LLC (mouse lung cancer cells); assay: Enrichment of CD8+ cytotoxic T lymphocytes in tumor tissue, Lewis non-small cell lung cancer model of mice; assay type: in vivo; details: 400 mg/kg ip once a day for 10 days, flow cytometry
Protocol: LLC (mouse lung cancer cells) were a mouse Lewis lung cancer cells.
The modeling method for LLC cell lung cancer in mice was as follows:
LLC cells were cultured in the general medium containing 10% fetal bovine serum and 100 μg/mL of double antibody (penicillin±streptomycin), and then cultivated in a 37° C., 5% CO2 cell incubator for routine incubation. LLC cells, that had grown to logarithmic phase, were digested with 0.25% trypsin (containing EDTA) to form a cell suspension, which was centrifuged at 1000 rpm/min for 3 min. The supernatant was discarded, and cell precipitates were collected, that were resuspended in culture medium without serum and double antibody. The cell suspension was further centrifuged to adjust the volume under the same conditions with the aid of cell counting, so as to prepare a cell suspension at a concentration of […] was injected into the right abdomen of each mouse, to complete the inoculation of tumor cells. The tumor was allowed to grew about 10 days, and the volume reached around 100 mm^3, before the mice were treated with test compounds.
Drug preparation: compounds 1-13 of the present invention were respective prepared into an injection with injection water.
Experimental methods: The model mice with LLC cell lung cancer were treated by intraperitoneal administration of 400 mg/kg injection containing the compound of the present invention. The model mice were divided into a negative control group (model mice only receiving equal volume of injection water by intraperitoneal administration) and treatment groups (model mice receiving the injection prepared with the compound of the present invention by intraperitoneal administration). The intraperitoneal injection regimen was carried out by injecting once a day at the pre-determined time. Before administration, the mice were weighed, and then treated with the injection at a dosage of 10 mL/kg, After successive administration for 10 days, that is, on the 10th day after receiving treatment, the mice were sacrificed, and the subcutaneous tumors were stripped to detect the ratio of cytotoxic T lymphocyte antigen CD8^+ in tumor tissues of the negative group and the treatment group by flow cytometry.
CD8^+ tumor-infiltrating lymphocytes in tumor tissues were detected by flow cytometry. The specific steps were as follows:
The mice were sacrificed, and then the abdominal epidermis of the mice was cut open using ophthalmic scissors, to fully expose the subcutaneous tumors. The subcutaneous tumor tissues on the right side of the mouse's abdomen were gradually peeled off with tweezers and ophthalmic scissors. After rinsing with PBS, the stripped tumor tissues were cut into about 1 mm using ophthalmic scissors, and then placed in 3 mL of PBS buffer containing 100 μg/mL of hyaluronidase. A centrifuge tube containing a dispersed liquid was placed in a water bath and kept at 37° C. for 20 min. A pipette was used to blow and shake the digestive tumor tissues every 5 minutes to fully digest. The dispersed liquid containing undigested tumor tissues was filtered through a 70 μm stainless steel cell screen, and the remaining undigested tumor tissues were ground using a push rod of 20 mL syringe on 70 μm cell screen and rinsed 5 times with 1 mL of PBS while grinding. The cell suspension passing the cell screen was transferred to a 15 mL centrifuge tube, and centrifuged at 4000 rpm for 3 min. Then, cell precipitates were collected, to which was added 2 mL of red cell lysis buffer, and rested for 10 min, followed by centrifuging at 4000 rpm for 3 min. After washing with PBS, the cells were resuspended by adding 2-3 mL of PBS.
An appropriate amount of cell suspension was used as the sample for flow cytometry, and after counting, the cell suspension was adjusted to have a concentration of 5×10^6/mL. 100 μL of cell suspension was added to a test tube with a pipettor. […]

[5] = system: human lung cancer A549; assay: Human lung cancer A549 transplanted tumors in nude mice; assay type: in vivo, BALB/C nude mice; details: A549, 400 mg/kg ig × 14
Protocol: In this experiment, a human lung cancer A549 model transplanted into nude mice was selected to study the anti-tumor effect of test compounds. The mice were treated at a dosage of 400 mg/kg by gavage for 14 days, and the tumor inhibition rate against human lung cancer A549 was measured.
Preparation: The compound was prepared as the solution at the desired concentration with distilled water, prior to administration.
Animal strain: BALB/C nude mice (SPF grade), weight: 19-21 g, gender: male. Number of animals in each treatment group: 8; Number of animals in the control group: >12.
Lung cancer A549 tumor blocks with good growth were chosen and cut into uniform small pieces of 3 mm under sterile conditions, and then subcutaneously inoculated into the right armpit of each mouse with a cannula. These mice were divided into 9 groups, 8 mice for each treatment group, while more than 12 mice were included in the control group.
14 days after inoculation, the average volume of the tumor mass was about 100 mm^3. The animals were regrouped based on the size of the tumor, and the mice with tumors that were too large and too small were eliminated. For each group, the average volume of tumors was basically the same, and then the mice were treated with test compounds. The mice in the treatment groups were administered once a day by gavage for 14 successive days, at a dosage of 0.5 mL/20 g body weight; the mice in the control group were given the same volume of physiological saline. From the 14th day of inoculation, the long diameter a (mm) of the tumor, together with the perpendicular short diameter b (mm), was measured using a digital electronic caliper, twice a week. The calculation formula of tumor volume is: TV=ab^2/2, and the formula for calculating the relative tumor volume is RTV=Vt/Vo, wherein Vo denotes the tumor volume measured when the mice were divided into groups (i.e. d1), and Vt is the tumor volume from each measurement.
as §4

[6] = system: human gastric cancer MGC803; assay: Human gastric cancer MGC803 transplanted tumor in nude mice; assay type: in vivo, BALB/C nude mice; details: MGC803, 200 mg/kg ip × 14
Protocol: A human gastric cancer MGC803 model transplanted into nude mice was used in the experiment to investigate the anti-tumor effect of test compounds.
as §1
Animal strain: BALB/C nude mice (SPF grade), weight: 19-21 g, gender: male.
Number of animals in each treatment group: 8; number of animals in the control group: >12.
as §2, with “gastric” for “liver”, “MGC803” for “QGY7703”
as §3, with “mice” for “mice in the treatment groups”, “intraperitoneally” for “intravenously”, “0.2” for “0.1”, “weight.” for “weight; the mice in the control group were given the same volume of sterile normal saline.”, “groups(i.e.” for “groups (i.e.”
as §4

Structure (SMILES)	The ratio of distribution area in tumor tissues (%) ([1]; 400 mg/kg)	Differentially expressed proteins [2]	Down-regulation [2]	Up-regulation [2]	inhibition in vivo at 100 mg/kg [3] [%]	RTV (d 18) [3]	The ratio of CD8^+ in total immune cells of tumor tissues (%) ([4]; 400 mg/kg)	RTV (d 22) [5]	inhibition in vivo at 400 mg/kg ([5]; Mus musculus, po, read-out: Tumor inhibitory rate %) [%]	The ratio of distribution area in tumor tissues (%) [1] [%]	The ratio of CD8^+ in total immune cells of tumor tissues (%) [4] [%]	RTV (d 18) [6]	Tumor inhibitory rate % [6]
COc1ccc(/C=C(/C(=O)O)c2cc(OC)c(OC)c(OC)c2)c(O)c1O [Compound 2, (E)-3-(2,3-dihydroxy-4-methoxyphenyl)-2-(3,4,5-trimethoxylphenyl)acrylic acid]	7.147 ± 0.7528	298	288	10	64.9	4.51 ± 0.58	0.0823 ± 0.0112	–	–	–	–	–	–
COc1cc(/C(=C\c2cc(O)c(OC)c(Cl)c2)C(=O)O)cc(OC)c1OC [Compound 5, (E)-3-(3-chloro-5-hydroxy-4-methoxyphenyl)-2-(3,4,5-trimethoxyphenyl) acrylic acid]	–	304	297	7	–	–	–	5.73 ± 1.25	51.2	7.438 ± 0.7610	0.0833 ± 0.0107	–	–
COc1cc(/C=C(/C(=O)O)c2cc(OC)c(OC)c(OC)c2)ccc1O [Compound 7, (E)-3-(4-hydroxy-3-methoxyphenyl)-2-(3,4,5-trimethoxyphenyl)acrylic acid]	–	289	281	8	64	4.63 ± 0.75	–	–	–	6.653 ± 0.7791	0.0774 ± 0.0115	4.46 ± 0.62	61.28^## %
